According to the OPERA property sets (Mansouri et al. 2018):

SMILES | logP
CC(C)C#N | 0.46
CC(C)CCC#N | 1.54
CCCC#N | 0.53
N#CCCCl | 0.18
N#CCCCCl | 0.56
CCCCCCCCC#N | 3.12
CCC(C)C#N (stereo unspecified) | 1.05
C=C(C)C#N | 0.68
CCCCCC#N | 1.66
C=CCC#N | 0.4
CCCCCCCC#N | 2.75
